1 substance from patent US20100003228A1, “T-CELL VACCINE” (priority 2006, published 2010) can be followed below.

For assay [1], the system named is myelin reactive T cells in PBMCs. The assay can be described thus: EAA with positivity by Variance Evaluation Method or CPM Variance Method (clinical trials). To be noted: clinical trial population, RR-MS or CIS subjects. Format: cell-based, human.
Assay [2] relates to T cell receptor variable beta chain usage (Vβ). The assay can be described thus: TCR V beta analysis of peptide-stimulated T cell line by flow cytometry. It is filed as cell-based, human. To be noted: Day 9 to Day 16 in culture, FIG. 10. How it is done:
Enrichment of T cell subsets was evaluated by analyzing the T cell receptor variable beta chain usage (Vβ). The 24 different known beta chain variable (Vβ) region families were evaluated using specific fluorescent-labeled monoclonal antibodies and flow cytometry. If a particular subset of T cells is selectively expanded by stimulation with a peptide, an increase would be detected in the percentage of cells expressing one of the V beta families as that subset expands.
[…] A T cell line was produced by stimulating the patient's PBMCs with peptide mix MBPm10, which had produced an SI of 4.6 in the original EAA for this patient. […] This mix was used to stimulate PBMCs from this patient in culture.

Take “PLPm27: mix of PLP 53 and PLP 54 (chain 1 VLPWNAFPGKVCGSNL; chain 2 NAFPGKVCGSNLLSIC)”: in assay [1], the “# of Subjects (frequency of identification)” value is listed as 6 and the “% of Subjects (frequency of identification)” value was found to be 5.0%. Moreover, the “TCR V beta focusing” value in assay [2] is “V beta chain 5-5 is expanding”.
